Each structure is given as a SMILES string.

This is an account of results in article PMC7707092, “Discovery and characterization of ORM‐11372, a novel inhibitor of the sodium‐calcium exchanger with positive inotropic activity” (British Journal of Pharmacology, 2020).

This series addresses hERG KV11.1 current (I hERG) (Homo sapiens, UniProt Q12809). Kind of series: KV11.1 channel current (I hERG), QPatch automated patch‐clamp, CHO–hERG cells. Format: cell-based. An excerpt: The hERG‐encoded voltage‐dependent potassium channel current (I hERG) cells to be studied were harvested with Detachin solution and either diluted with a volume of CHO cell serum‐free media (supplemented with 100 IU·ml^−1 of penicillin/streptomycin and 25‐mM HEPES) to obtain cells, for which the cell density was ~4 x10^6 cells·ml^−1, or plated on glass coverslips and used on the following 1–2 days. HEK 293 cells were transiently transfected using lipofectamine (Invitrogen, USA), with a human sodium voltage‐gated channel subunit 5 (hSCN5) A (transcript variant 2)‐containing plasmid, in Optimem medium. […]
In addition, after loading the CHO–hERG cell suspension, whole‐cell voltage‐clamp values were recorded at room temperature on a QPatch 16× automated patch‐clamp (Sophion Biosciences), in the single‐hole mode. […] The hERG tail current was measured as the difference between the peak tail current amplitude during the repolarization step and leak current measurement step. Subsequently, the voltage dependence of the block was also assessed, by carrying out depolarization for 4 s, from −80 to +60 mV in 10‐mV steps, before and after the addition of 20‐μM ORM‐11372 (n = 7). The peak tail current elicited during the 5 s repolarization step to −50 mV was measured and plotted against the preceding depolarization step voltage values.
For orientation: Block of hERG is tested as a sign of cardiac risk.

Chain of hERG KV11.1 current (I hERG) (Q12809 whole entry): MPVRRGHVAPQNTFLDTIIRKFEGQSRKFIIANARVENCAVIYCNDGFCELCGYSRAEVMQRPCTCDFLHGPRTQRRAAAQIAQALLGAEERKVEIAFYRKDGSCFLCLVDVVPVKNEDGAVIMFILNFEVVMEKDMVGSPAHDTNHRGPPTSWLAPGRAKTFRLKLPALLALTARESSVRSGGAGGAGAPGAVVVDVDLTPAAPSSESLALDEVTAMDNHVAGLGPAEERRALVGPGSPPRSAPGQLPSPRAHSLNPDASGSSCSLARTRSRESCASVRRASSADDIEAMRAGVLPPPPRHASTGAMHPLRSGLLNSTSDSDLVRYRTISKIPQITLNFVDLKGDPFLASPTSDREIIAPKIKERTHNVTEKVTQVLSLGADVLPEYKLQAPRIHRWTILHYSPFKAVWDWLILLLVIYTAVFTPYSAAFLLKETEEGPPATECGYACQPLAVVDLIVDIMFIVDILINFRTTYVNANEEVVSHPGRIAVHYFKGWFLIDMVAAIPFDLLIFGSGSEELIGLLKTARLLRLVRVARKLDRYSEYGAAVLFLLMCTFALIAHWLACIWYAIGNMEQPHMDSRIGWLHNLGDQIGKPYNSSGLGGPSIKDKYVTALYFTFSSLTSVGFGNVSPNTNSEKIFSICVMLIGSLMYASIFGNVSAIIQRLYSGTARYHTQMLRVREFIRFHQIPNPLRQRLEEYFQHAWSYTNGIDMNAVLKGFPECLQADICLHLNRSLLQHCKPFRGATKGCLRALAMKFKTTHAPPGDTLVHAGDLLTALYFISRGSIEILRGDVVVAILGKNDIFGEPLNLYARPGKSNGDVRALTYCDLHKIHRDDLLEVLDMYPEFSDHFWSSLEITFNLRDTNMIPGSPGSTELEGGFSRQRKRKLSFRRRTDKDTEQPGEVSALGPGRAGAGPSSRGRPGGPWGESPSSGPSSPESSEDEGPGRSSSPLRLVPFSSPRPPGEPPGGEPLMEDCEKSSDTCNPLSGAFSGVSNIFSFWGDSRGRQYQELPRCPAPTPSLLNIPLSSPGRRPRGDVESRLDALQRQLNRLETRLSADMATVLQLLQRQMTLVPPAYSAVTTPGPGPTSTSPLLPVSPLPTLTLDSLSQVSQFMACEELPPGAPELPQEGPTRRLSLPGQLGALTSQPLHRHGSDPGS

Consider `Nc1cccc(-c2ccc(CNc3ccc(F)cc3)o2)c1` [ORM‐11372], for which the “slope k of I hERG activation curve (Boltzmann fit)” value (20 µM ORM-11372, n=7, control 6.9 ± 0.3 mV) worked out at 5.5 ± 0.1 mV. This molecule also displayed an IC50 (automated patch‐clamp, room temperature) of 19.2 µM.

One may read the IC50 as the concentration that inhibits the measured activity by half. Low values mean higher potency, high ones lower potency.
